Test results reported in US9914730B2, “Azaquinazoline inhibitors of Atypical protein Kinase C” (Ignyta, Inc., priority 2012, dated 2018).

molecular target: T1, full-length human PKCι (Homo sapiens, UniProt P41743); assay: PKCι IC50 IMAP assay, full-length PKCι at 150 μM ATP; format: biochemical; conditions: read-out: IC50 in IMAP assay against full length PKCi at 150 μM ATP
T1 construct: Recombinant, full-length human PKCι expressed in Sf21 insect cells is also commercially available; purchased; host or cells: Sf21 insect cells
T1 sequence (P41743 1-596): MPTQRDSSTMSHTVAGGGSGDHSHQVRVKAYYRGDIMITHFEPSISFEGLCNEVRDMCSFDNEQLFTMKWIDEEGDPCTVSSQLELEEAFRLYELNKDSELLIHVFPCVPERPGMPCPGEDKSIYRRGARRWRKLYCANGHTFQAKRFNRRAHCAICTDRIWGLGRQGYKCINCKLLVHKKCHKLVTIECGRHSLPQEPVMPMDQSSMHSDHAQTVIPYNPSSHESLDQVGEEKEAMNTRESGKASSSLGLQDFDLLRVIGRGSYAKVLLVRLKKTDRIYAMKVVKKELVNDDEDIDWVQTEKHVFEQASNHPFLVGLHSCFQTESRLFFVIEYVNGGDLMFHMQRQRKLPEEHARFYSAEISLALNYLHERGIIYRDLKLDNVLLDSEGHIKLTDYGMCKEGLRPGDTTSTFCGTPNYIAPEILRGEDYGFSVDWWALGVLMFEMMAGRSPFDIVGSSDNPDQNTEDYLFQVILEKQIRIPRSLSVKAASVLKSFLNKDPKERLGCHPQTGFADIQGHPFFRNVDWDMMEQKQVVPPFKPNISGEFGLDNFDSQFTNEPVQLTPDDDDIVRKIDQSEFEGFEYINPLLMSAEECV
Procedure, shortened: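 Dose-response IC50 values come from IMAP fluorescence polarisation after 60 min room-temperature turnover of 100 nM FAM peptide by ~15 pM insect-cell-expressed full-length PKCι at 150 μM ATP (5× KM^APP), normalised to no-compound and no-enzyme controls.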

IC50 [nM]	Compound
< 100	FC1(F)CCC(Nc2cc(-c3nc(N4CCNCC4)c4c(C5CC5)cncc4n3)ccn2)CC1 [Example 510, [4-(5-Cyclopropyl-4-piperazin-1-yl-pyrido[3,4-d]pyrimidin-2-yl)-pyridin-2-yl]-(4,4-difluoro-cyclohexyl)-amine]
100 to 1000	FC[C@H]1CN(c2nc(-c3ccnc(Nc4cc(C(F)(F)F)ccn4)c3)nc3cncc(C4CC4)c23)CCN1 [Example 511, {4-[5-Cyclopropyl-4-((R)-3-fluoromethyl-piperazin-1-yl)-pyrido[3,4-d]pyrimidin-2-yl]-pyridin-2-yl}-(4-trifluoromethyl-pyridin-2-yl)-amine]
< 100	COc1ncccc1Nc1cc(-c2nc(N3CCNCC3)c3c(C4CC4)cncc3n2)ccn1 [Example 513, [4-(5-Cyclopropyl-4-piperazin-1-yl-pyrido[3,4-d]pyrimidin-2-yl)-pyridin-2-yl]-(2-methoxy-pyridin-3-yl)-amine]
< 100	Clc1cccc(Nc2cc(-c3nc(N4CCNCC4)c4c(C5CC5)cncc4n3)ccn2)n1 [Example 514, (6-Chloro-pyridin-2-yl)-[4-(5-cyclopropyl-4-piperazin-1-yl-pyrido[3,4-d]pyrimidin-2-yl)-pyridin-2-yl]-amine]
< 100	COc1ccccc1Nc1cc(-c2nc(N3CCNCC3)c3c(C4CC4)cncc3n2)ccn1 [Example 515, [4-(5-Cyclopropyl-4-piperazin-1-yl-pyrido[3,4-d]pyrimidin-2-yl)-pyridin-2-yl]-(2-methoxy-phenyl)-amine]
< 100	FC(F)(F)c1ccccc1Nc1cc(-c2nc(N3CCNCC3)c3c(C4CC4)cncc3n2)ccn1 [Example 516, [4-(5-Cyclopropyl-4-piperazin-1-yl-pyrido[3,4-d]pyrimidin-2-yl)-pyridin-2-yl]-(2-trifluoromethyl-phenyl)-amine]
100 to 1000	COCc1ccccc1Nc1cc(-c2nc(N3CCNCC3)c3c(C4CC4)cncc3n2)ccn1 [Example 517, [4-(5-Cyclopropyl-4-piperazin-1-yl-pyrido[3,4-d]pyrimidin-2-yl)-pyridin-2-yl]-(2-methoxymethyl-phenyl)-amine]
< 100	c1cc(-c2nc(N3CCNCC3)c3c(C4CC4)cncc3n2)cc(N[C@H]2CCOC2)n1 [Example 518, [4-(5-Cyclopropyl-4-piperazin-1-yl-pyrido[3,4-d]pyrimidin-2-yl)-pyridin-2-yl]-(S)-tetrahydro-furan-3-yl-amine]
100 to 1000	N#Cc1ccccc1Nc1cc(-c2nc(N3CCNCC3)c3c(C4CC4)cncc3n2)ccn1 [Example 519, 2-[4-(5-Cyclopropyl-4-piperazin-1-yl-pyrido[3,4-d]pyrimidin-2-yl)-pyridin-2-ylamino]-benzonitrile]
< 100	CC(C)(C)Nc1cc(-c2nc(N3CCNCC3)c3c(C4CC4)cncc3n2)ccn1 [Example 520, tert-Butyl-[4-(5-cyclopropyl-4-piperazin-1-yl-pyrido[3,4-d]pyrimidin-2-yl)-pyridin-2-yl]-amine]
< 100	Fc1ccc(F)c(Nc2cc(-c3nc(N4CCNCC4)c4c(C5CC5)cncc4n3)ccn2)c1 [Example 521, [4-(5-Cyclopropyl-4-piperazin-1-yl-pyrido[3,4-d]pyrimidin-2-yl)-pyridin-2-yl]-(2,5-difluoro-phenyl)-amine]
100 to 1000	Fc1ccc(C(F)(F)F)cc1Nc1cc(-c2nc(N3CCNCC3)c3c(C4CC4)cncc3n2)ccn1 [Example 522, [4-(5-Cyclopropyl-4-piperazin-1-yl-pyrido[3,4-d]pyrimidin-2-yl)-pyridin-2-yl]-(2-fluoro-5-trifluoromethyl-phenyl)-amine]
< 100	Cc1ccc(F)cc1Nc1cc(-c2nc(N3CCNCC3)c3c(C4CC4)cncc3n2)ccn1 [Example 523, [4-(5-Cyclopropyl-4-piperazin-1-yl-pyrido[3,4-d]pyrimidin-2-yl)-pyridin-2-yl]-(5-fluoro-2-methyl-phenyl)-amine]
< 100	Cc1ccc(C#N)cc1Nc1cc(-c2nc(N3CCNCC3)c3c(C4CC4)cncc3n2)ccn1 [Example 524, 3-[4-(5-Cyclopropyl-4-piperazin-1-yl-pyrido[3,4-d]pyrimidin-2-yl)-pyridin-2-ylamino]-4-methyl-benzonitrile]
100 to 1000	O=C1OCC2CN(c3nc(-c4ccnc(Nc5ccccc5)c4)nc4cncc(C5CC5)c34)CCN12 (centres unmarked) [Example 525, 7-[5-Cyclopropyl-2-(2-phenylamino-pyridin-4-yl)-pyrido[3,4-d]pyrimidin-4-yl]-hexahydro-oxazolo[3,4-a]pyrazin-3-one]
< 100	Fc1cccnc1Nc1cc(-c2nc(N3CCNCC3)c3c(C4CC4)cncc3n2)ccn1 [Example 526, [4-(5-Cyclopropyl-4-piperazin-1-yl-pyrido[3,4-d]pyrimidin-2-yl)-pyridin-2-yl]-(3-fluoro-pyridin-2-yl)-amine]
< 100	Cc1cccc(Cl)c1Nc1cc(-c2nc(N3CCNCC3)c3c(C4CC4)cncc3n2)ccn1 [Example 527, (2-Chloro-6-methyl-phenyl)-[4-(5-cyclopropyl-4-piperazin-1-yl-pyrido[3,4-d]pyrimidin-2-yl)-pyridin-2-yl]-amine]
100 to 1000	N#Cc1ccc(F)c(Nc2cc(-c3nc(N4CCNCC4)c4c(C5CC5)cncc4n3)ccn2)c1 [Example 528, 3-[4-(5-Cyclopropyl-4-piperazin-1-yl-pyrido[3,4-d]pyrimidin-2-yl)-pyridin-2-ylamino]-4-fluoro-benzonitrile]
< 100	CC(C)(C)c1ccc(Nc2cc(-c3nc(N4CCNCC4)c4c(C5CC5)cncc4n3)ccn2)c(Cl)c1 [Example 529, (4-tert-Butyl-2-chloro-phenyl)-[4-(5-cyclopropyl-4-piperazin-1-yl-pyrido[3,4-d]pyrimidin-2-yl)-pyridin-2-yl]-amine]
< 100	N#Cc1ccnc(Nc2cc(-c3nc(N4CCN[C@@H](CF)C4)c4c(C5CC5)cncc4n3)ccn2)c1 [Example 530, 2-{4-[5-Cyclopropyl-4-((R)-3-fluoromethyl-piperazin-1-yl)-pyrido[3,4-d]-pyrimidin-2-yl]-pyridin-2-ylamino}-iso-nicotinonitrile]
< 100	FC[C@H]1CN(c2nc(-c3ccnc(Nc4cccnc4F)c3)nc3cncc(C4CC4)c23)CCN1 [Example 531, {4-[5-Cyclopropyl-4-((R)-3-fluoromethyl-piperazin-1-yl)-pyrido[3,4-d]-pyrimidin-2-yl]-pyridin-2-yl}-(2-fluoro-pyridin-3-yl)-amine]
< 100	FC(F)(F)CNc1cc(-c2nc(N3CCNCC3)c3c(C4CC4)cncc3n2)ccn1 [Example 532, [4-(5-Cyclopropyl-4-piperazin-1-yl-pyrido[3,4-d]pyrimidin-2-yl)-pyridin-2-yl]-(2,2,2-trifluoro-ethyl)-amine]
100 to 1000	N#Cc1ccnc(Nc2cc(-c3nc(N4CCN5C(=O)OCC5C4)c4c(C5CC5)cncc4n3)ccn2)c1 (centres unmarked) [Example 533, 2-{4-[5-Cyclopropyl-4-(3-oxo-tetrahydro-oxazolo[3,4-a]pyrazin-7-yl)-pyrido[3,4-d]pyrimidin-2-yl]-pyridin-2-ylamino}-isonicotinonitrile]
< 100	FC(F)(F)c1cccc(Nc2cc(-c3nc(N4CCNCC4)c4c(C5CC5)cncc4n3)ccn2)n1 [Example 534, [4-(5-Cyclopropyl-4-piperazin-1-yl-pyrido[3,4-d]pyrimidin-2-yl)-pyridin-2-yl]-(6-trifluoromethyl-pyridin-2-yl)-amine]
100 to 1000	Fc1cncc(Nc2cc(-c3nc(N4CCNCC4)c4c(C5CC5)cncc4n3)ccn2)c1 [Example 535, [4-(5-Cyclopropyl-4-piperazin-1-yl-pyrido[3,4-d]pyrimidin-2-yl)-pyridin-2-yl]-(5-fluoro-pyridin-3-yl)-amine]
1000 to 10000	FC(F)(F)c1ncccc1Nc1cc(-c2nc(N3CCNCC3)c3c(C4CC4)cncc3n2)ccn1 [Example 536, [4-(5-Cyclopropyl-4-piperazin-1-yl-pyrido[3,4-d]pyrimidin-2-yl)-pyridin-2-yl]-(2-trifluoromethyl-pyridin-3-yl)-amine]
< 100	c1ccc(Nc2cc(-c3nc(N4CCNC5CC54)c4c(C5CC5)cncc4n3)ccn2)cc1 (centres unmarked) [Example 537, {4-[5-Cyclopropyl-4-(2,5-diaza-bicyclo-[4.1.0]hept-2-yl)-pyrido[3,4-d]-pyrimidin-2-yl]-pyridin-2-yl}-phenyl-amine]
< 100	Fc1cccc(F)c1Nc1cc(-c2nc(N3CCNC4CC43)c3c(C4CC4)cncc3n2)ccn1 (centres unmarked) [Example 538, {4-[5-Cyclopropyl-4-(2,5-diaza-bicyclo-[4.1.0]hept-2-yl)-pyrido[3,4-d]pyrimidin-2-yl]-pyridin-2-yl}-(2,6-difluoro-phenyl)-amine]
< 100	Clc1cccc(Cl)c1Nc1cc(-c2nc(N3CCNCC3)c3c(C4CC4)cncc3n2)ccn1 [Example 539, [4-(5-Cyclopropyl-4-piperazin-1-yl-pyrido[3,4-d]pyrimidin-2-yl)-pyridin-2-yl]-(2,6-dichloro-phenyl)-amine]
